The NIST ThermoML archive (doi:10.1021/je300736k)
± gives the expanded uncertainty stated by the source.

Settings: Liquid, Closed cell (Static) method

| SMILES | vapor or sublimation pressure (278.15 K) | vapor or sublimation pressure (283.15 K) | vapor or sublimation pressure (288.15 K) | vapor or sublimation pressure (293.15 K) | vapor or sublimation pressure (298.15 K) | vapor or sublimation pressure (303.15 K) | vapor or sublimation pressure (308.15 K) | vapor or sublimation pressure (313.15 K) | vapor or sublimation pressure (318.15 K) | vapor or sublimation pressure (323.15 K) |
| --- | --- | --- | --- | --- | --- | --- | --- | --- | --- | --- |
| CC12CCC(CC1)C(C)(C)O2 [1,3,3-trimethyl-2-oxabicyclo[2.2.2]octane] | 0.071 ± 0.026 kPa | 0.093 ± 0.026 kPa | 0.13 ± 0.026 kPa | 0.178 ± 0.026 kPa | 0.253 ± 0.026 kPa | 0.346 ± 0.026 kPa | 0.477 ± 0.026 kPa | 0.627 ± 0.027 kPa | 0.828 ± 0.027 kPa | 1.101 ± 0.027 kPa |
| CCCO [propan-1-ol] | 0.704 ± 0.027 kPa | 1.012 ± 0.027 kPa | 1.449 ± 0.028 kPa | 2.038 ± 0.028 kPa | 2.838 ± 0.029 kPa | 3.866 ± 0.029 kPa | 5.229 ± 0.03 kPa | 7.006 ± 0.032 kPa | 9.295 ± 0.035 kPa | 12.18 ± 0.037 kPa |
